Experimental findings from patent publication US7521458B2, “Spiropiperidylrifamycins for the treatment of mycobacterial infections” (priority 2004, dated 2009) are described below.

Each structure is given as a SMILES string.

What all share (type): cell-based
Test [1] deals with Mycobacterium tuberculosis 38 strains assayed. The test is described as follows: Method of the proportions, Table 3 entry 6.
Test [2] deals with Mycobacterium tuberculosis ATCC 35820. The test is described as follows: Method of the proportions, Table 3 entry 2.
Test [3] relates to Mycobacterium avium-intracellulare complex 5 strains assayed. The test is described as follows: Method of the proportions, Table 3 entry 11.
Test [4] deals with Mycobacterium tuberculosis 3 strains assayed. The test is described as follows: Method of the proportions, Table 3 entry 9.
In test [5] the test system is Mycobacterium tuberculosis 8 strains assayed. Nature of the test: Method of the proportions, Table 3 entry 7.
Test [6] relates to Mycobacterium Kansasii 4 strains assayed. The test is described as follows: Method of the proportions, Table 3 entry 12.
Test [7] relates to Mycobacterium tuberculosis H37 RV. Nature of the test: Method of the proportions, Table 3 entry 5.
The subject of test [8] is Mycobacterium tuberculosis ATCC 35838. Nature of the test: Method of the proportions, Table 3 entry 3.
Test [9] deals with Mycobacterium tuberculosis ATCC 35822. Nature of the test: Method of the proportions, Table 3 entry 4.
For test [10], the system named is Mycobacterium tuberculosis 2 strains assayed. The test is described as follows: Method of the proportions, Table 3 entry 8.
The test system of test [11] is Mycobacterium tuberculosis 1 strain assayed. Nature of the test: Method of the proportions, Table 3 entry 10.
The test system of test [12] is Mycobacterium tuberculosis ATCC 35837. Nature of the test: Method of the proportions, Table 3 entry 1.

As for `CN[C@@H]1[C@H](O[C@H]2[C@H](O[C@H]3[C@H](O)[C@@H](O)[C@H](N=C(N)N)[C@@H](O)[C@@H]3N=C(N)N)O[C@@H](C)[C@]2(O)C=O)O[C@@H](CO)[C@H](O)[C@H]1O` [SM], the “Sensitivity of strains (s/R)” value is given as “s (s means sensitive)” in test [1] (concentration analysed 4 μg/ml); “s/R” in test [3] (concentration analysed 4 μg/ml); “R (R means resistent)” in [4] (concentration analysed 4 μg/ml); “s (s means sensitive)” in test [5] (concentration analysed 4 μg/ml); “R (R means resistent)” in [6] (concentration analysed 4 μg/ml); “s (s means sensitive)” in test [10] (concentration analysed 4 μg/ml). Further, the “Sensitivity of strain (s/R)” value in test [2] (concentration analysed 4 μg/ml) is “R (R means resistent)”; in test [7] (concentration analysed 4 μg/ml), “s (s means sensitive)”; in [8] (concentration analysed 4 μg/ml) it was “s (s means sensitive)”; in test [9] (concentration analysed 4 μg/ml) it was “s (s means sensitive)”; in test [11] (concentration analysed 4 μg/ml), “R (R means resistent)”; in [12] (concentration analysed 4 μg/ml) it was “s (s means sensitive)”.
As for `NNC(=O)c1cccs1` [TCH, 2-tiophene hydrazo carboxilic acid], the “Sensitivity of strains (s/R)” value in test [1] (concentration analysed 1 μg/ml), in [3] (concentration analysed 1 μg/ml), in test [4] (concentration analysed 1 μg/ml), in test [5] (concentration analysed 1 μg/ml), in test [6] (concentration analysed 1 μg/ml) and in test [10] (concentration analysed 1 μg/ml) was “R (R means resistent)” throughout. Further, the “Sensitivity of strain (s/R)” value in test [2] (concentration analysed 1 μg/ml), in [7] (concentration analysed 1 μg/ml), in test [8] (concentration analysed 1 μg/ml), in test [9] (concentration analysed 1 μg/ml), in [11] (concentration analysed 1 μg/ml) and in test [12] (concentration analysed 1 μg/ml) was “R (R means resistent)” throughout.
